Legend:
DENV-2 NGC = assay: Antiviral activity against DENV-2 NGC in Vero-B cells (viral RNA load by RT-qPCR); assay type: cell-based, Dengue virus; details: Dengue virus, DENV2, Vero B, DENV-2 in Vero-B cells; inhibition of viral RNA replication by 50% (Table 3)
in vitro = details: African green monkey, uninfected quiescent Vero-B cells

Compound	EC50 (DENV-2 NGC) [µM]	CC50 at 4 days (in vitro) [µM]
COc1cccc(NC(C(=O)c2nn(C)c3c2CN(C)CC3)c2ccccc2)c1 (stereo not drawn) [CPD-223]	58	> 128
COc1cccc(NC(C(=O)c2c[nH]c3c(C)cccc23)c2ccccc2)c1 (stereo not drawn) [CPD-224]	0.05	> 134
COc1cccc(NC(C(=O)c2c[nH]c3ccc(CN(C)C)cc23)c2ccccc2)c1 (stereo not drawn) [CPD-228]	1.62	13
COc1cccc(NC(C(=O)c2c[nH]c3cccc(OC)c23)c2ccccc2)c1 (stereo not drawn) [CPD-231]	1.22	18
COc1cccc(NC(C(=O)c2c[nH]c3ccccc23)c2ccc(N(C)C)nc2)c1 (stereo not drawn) [CPD-239]	22.7	> 125
CCOc1cncc(NC(C(=O)c2c[nH]c3ccccc23)c2ccccc2)c1 (stereo not drawn) [CPD-246]	0.32	16
CC(C)Oc1cncc(NC(C(=O)c2c[nH]c3ccccc23)c2ccccc2)c1 (stereo not drawn) [CPD-247]	0.42	15
CCc1cncc(NC(C(=O)c2c[nH]c3ccccc23)c2ccccc2)c1 (stereo not drawn) [CPD-248]	0.56	15
CCOc1ccc(C(Nc2cccc(OC)c2)C(=O)c2c[nH]c3ccccc23)cn1 (stereo not drawn) [CPD-250]	0.22	15
COc1cccc(NC(C(=O)c2c[nH]c3cccc(C)c23)c2ccccc2)c1 (stereo not drawn) [CPD-251]	0.07	14
COc1cc(NC(C(=O)c2c[nH]c3ccccc23)c2ccccc2)cnc1N(C)C (stereo not drawn) [CPD-257]	0.45	17
COc1cncc(NC(C(=O)c2nn(C)c3ccccc23)c2ccccc2)c1 (stereo not drawn) [CPD-259]	0.54	14
CNc1ncc(NC(C(=O)c2c[nH]c3ccccc23)c2ccccc2)cc1OC (stereo not drawn) [CPD-261]	0.39	15
COc1cc(CN(C)C)cc(NC(C(=O)c2c[nH]c3ccccc23)c2ccccc2)c1 (stereo not drawn) [CPD-263]	2.18	13
COc1cccc(NC(C(=O)c2nn(C)c3ccccc23)c2ccc(OC)nc2)c1 (stereo not drawn) [CPD-264]	0.51	> 124
COc1cccc(NC(C(=O)c2c[nH]c3ccccc23)c2cc(C)n(C)n2)c1 (stereo not drawn) [CPD-267]	1.3	79
COc1cccc(NC(C(=O)c2c[nH]c3ccccc23)c2ccc(OC(C)C)nc2)c1 (stereo not drawn) [CPD-268]	0.46	15
O=C(c1c[nH]c2ccccc12)C(Nc1cncc(OC(F)F)c1)c1ccccc1 (stereo not drawn) [CPD-269]	0.48	13

Compound	EC50 (DENV-2 NGC) [µM]	CC50 at 4 days (in vitro) [µM]
COc1cccc(NC(C(=O)c2nn(C)c3ccccc23)c2cnc(OC)cn2)c1 (stereo not drawn) [CPD-272]	0.47	> 124
COc1cccc(NC(C(=O)c2c[nH]c3ccccc23)c2cnccn2)c1 (stereo not drawn) [CPD-274]	0.39	100
COc1cccc(NC(C(=O)c2nn(C)c3ccc(C#N)cc23)c2ccccc2)c1 (stereo not drawn) [CPD-275]	9.96	> 126
COc1cncc(NC(C(=O)c2nn(C)c3ccccc23)c2ccccc2)n1 (stereo not drawn) [CPD-276]	2.62	23
COc1cncc(NC(C(=O)c2c[nH]c3ccccc23)c2cccnc2)n1 (stereo not drawn) [CPD-280]	0.78	> 139
COc1ccc(C(Nc2cncc(OC)n2)C(=O)c2c[nH]c3ccccc23)cn1 (stereo not drawn) [CPD-284]	0.62	74
COc1cccc(NC(C(=O)c2nn(C)c3cc(C#N)ccc23)c2ccccc2)c1 (stereo not drawn) [CPD-286]	1.05	> 126
COc1cncc(NC(C(=O)c2c[nH]c3cc(F)ccc23)c2ccccc2)n1 (stereo not drawn) [CPD-287]	0.44	> 132
COc1cncc(NC(C(=O)c2c[nH]c3ccccc23)c2cc3ccccn3n2)n1 (stereo not drawn) [CPD-290]	0.88	> 125
COc1cccc(NC(C(=O)c2cccc3[nH]ccc23)c2ccccc2)c1 (stereo not drawn) [CPD-302]	0.65	15
COc1cccc(NC(C(=O)c2c[nH]c3ccccc23)c2cc3n(n2)CCOC3)c1 (stereo not drawn) [CPD-311]	2.58	77
COc1cccc(NC(C(=O)c2c[nH]c3ccccc23)c2cncc(OC)c2)c1 (stereo not drawn) [CPD-312]	4.67	69
COc1cccc(NC(C(=O)c2noc3ccccc23)c2ccccc2)c1 (stereo not drawn) [CPD-330]	4.63	> 139
COc1cc(OC)nc(NC(C(=O)c2c[nH]c3ccccc23)c2ccccc2)n1 (stereo not drawn) [CPD-347]	0.98	6
COc1cc(NC(C(=O)c2c[nH]c3ccccc23)c2ccccc2)ccc1F (stereo not drawn) [CPD-356]	0.12	13
COc1cc(NC(C(=O)c2cn(C)c3c(CCO)cccc23)c2ccccc2)cc(OC)c1 (stereo not drawn) [CPD-358]	0.18	63
COc1cc(NC(C(=O)c2c[nH]c3c(CO)cccc23)c2ccccc2)cc(OC)c1 (stereo not drawn) [CPD-362]	0.09	41
COc1cncc(NC(C(=O)c2c[nH]c3c(CCO)cccc23)c2ccccc2)c1 (stereo not drawn) [CPD-364]	1.12	62
